In patent US20230159620A1, “COMPOSITIONS AND METHODS OF TREATMENT FOR VASCULAR DISEASES AND THROMBOSIS” (Washington University, priority 2021, published 2023):

Key:
platelets = tested on: platelets
Protocol: Complete blood counts (CBC) and washed platelet counts were determined using a hematology analyzer Element HT5 (Heska, Loveland). […] For flow cytometry, diluted whole blood or isolated platelets were pre-incubated with their respective fluorescent antibodies for 15 minutes and fixed. For murine whole blood: CD41-VioBlue, CD61-PE (Mitlenyi Biotec, Bergisch Gladbach, Germany), CD42b-DL649, GPVI-FITC (Emfret, Eibelstadt, Germany) and for human whole blood and isolated platelets: CD41-FITC, CD61-APC, CD42b-PE (Biolegend, San Diego), GPVI-BV421 617 (BD, Franklin Lakes). Platelet surface receptor levels were quantified by flow cytometry on a 618 CytoFlex analyzer.
Samples were immediately fixed and run using a CytoFlex analyzer (Beckman Coulter, Pasadena) and analysis was performed with Kaluza software (Beckman Coulter, Pasadena).

AKT [1] = experiment: AKT signaling immunoblot, hCASMCs; assay type: cell-based, human; conditions: relative to BSA controls
Protocol: (§1) Cellular reagents were purchased from various commercial vendors. Primary human umbilical vein endothelial cells (HUVECs) were obtained from Cell Applications Inc. and cultured according to the manufacture's recommendations. Primary human coronary artery smooth muscle cells were obtained from Invitrogen and were cultured according to the manufacture's recommendations. 293T cells were obtained from ATCC and were cultured according to the manufacture's recommendations. Mouse primary smooth muscle cells were obtained and cultured as described previously. Predesigned Silencer Select siRNA constructs targeting Pearl 1 and negative control siRNA were obtained from ThermoFisher. Transfections were performed using RNAiMAX or Lipofectamine 3000 transfection reagents according to the manufacturer's protocols. Cells were used for signaling assays 48 hours after transfection; efficient Pearl 1 knockdown or Pearl 1 overexpression was confirmed by immunoblot assays.
Prior to performing signaling assays, cells were trypsinized, centrifuged, suspended in basal media, and counted using an automated hemocytometer. Cells were further diluted in basal media to an assay-dependent concentration. […] Protein content was determined using a bicinchoninic acid assay with BSA standards (#23225, Pierce BCA Protein Assay Kit). […]

AKT [2] = experiment: AKT signaling immunoblot / phospho-array, HUVECs; assay type: cell-based, human
Protocol: as §1
Prior to performing signaling assays, cells were trypsinized, centrifuged, suspended in basal media, and counted using an automated hemocytometer. Cells were further diluted in basal media to an assay-dependent concentration. Cells were then incubated with gentle agitation for 60 minutes to prevent cell attachment and reduce basal signaling. PP1, Dynasore, MK-2206, and Rapamycin were diluted in DMSO and used in assay concentrations of 10 μM, 100 μM, 10 μM, and respectively, for the final 20-30 minutes of incubation in basal media. An equal volume of DMSO was used as the negative control condition. […] 1 μg Pearl 1 polyclonal antibody was added as a specific positive control. 20% growth media or 2% fetal bovine serum, labeled “Serum” in figures, was added as a non-specific positive control. The cells were centrifuged at 300G for 3 minutes with the exception of platelets, which were centrifuged at 500G for 5 minutes. The cells were then incubated at 37° C. for 8-45 minutes, depending on the cell type and pathway of interest. The cells were lysed in radioimmunoprecipitation buffer (RIPA) containing a cocktail of protease and phosphatase inhibitors and universal nuclease. Immunoblots were performed by standard techniques, as briefly follows. Protein content was determined using a bicinchoninic acid assay with BSA standards (#23225, Pierce BCA Protein Assay Kit). Cell lysates were then reduced with dithiothreitol (DTT) in lithium dodecyl sulfate (LDS) sample buffer (#NP0007, Invitrogen). Equal protein amounts were added to polyacrylamide gels (#4561086, BioRad) and electrophoresed prior to transferring to a nitrocellulose or polyvinylidene fluoride membrane (#1620260, BioRad). Membranes were blocked in 5% BSA/Tris-buffered saline (TBS) with 0.1% Tween 20 for 30 minutes. […]

Human platelets = conditions: static conditions, with and without 0.1 U/mL thrombin
Protocol: Subsequently, coverslips were blocked with 1% BSA and washed with PBS. Human platelets were isolated from whole blood and re-suspended in Tyrode's buffer. 2×10^7/mL basal or thrombin activated platelets were added to coverslips and incubated at 37° C. for 10, 20, or 30 minutes. After incubation, non-adherent platelets were removed and the coverslips were washed with PBS, fixed with 1.5% paraformaldehyde, permeabilized with 0.01% Triton-X and stained with TRITC phalloidin. Platelets were visualized using fluorescent microscopy. Images of the adhered platelets were captured using fluorescent microscopy and counted manually by a blinded observer.

FGF receptors = experiment: Bulk RNA sequencing of VSMCs, Fgfr transcripts; assay type: cell-based, mouse; conditions: RNAseq, normalized to BSA
Protocol: Plates were UV sterilized before adding cells. Primary VSMCs were collected, resuspended in DMEM/F12 media containing 10% FBS, plated on precoated, blocked wells, and incubated for 8 hr to ensure complete cell adhesion. Media was replaced with fresh DMEM/F12 containing 1% FBS and incubated for 12 hr before collection. RNA was collected using RNeasy® Mini Kit (#74106, Qiagen). Atherosclerotic aortic arches (including the aortic root, arch, and the proximal regions of its branching vessels) from mice were used as the source of RNA for the later RNAseq experiment. […]
Samples were prepared according to the library kit manufacturer's protocol, indexed, pooled, and sequenced on an Illumina HiSeq. Basecalls and demultiplexing were performed with Illumina's bcl2fastq software and a custom python demultiplexing program with a maximum of one mismatch in the indexing read. RNA-seq reads were then aligned to the Ensembl release 76 primary assembly with STAR version 2.5.1a. Gene counts were derived from the number of uniquely aligned unambiguous reads by Subread:featureCount version 1.4.6-p5 2). […] Sequencing performance was assessed for the total number of aligned reads, the total number of uniquely aligned reads, and the features detected. The ribosomal fraction, known junction saturation, and read distribution over known gene models were quantified with RSeQC version 2.6.2. […]

Protocol for THP-1 cells: 2,000 cells were added to each well and incubated for 8 hr to assure complete cell adhesion. […] Adhesion assays were performed in precoated 96-well plates blocked with 100 mg ml-l BSA. Blocking conditions were empirically derived to minimize non-specific cell adhesion. After 5 min (for THP-1 cells) or 15 min (for VSMCs) incubation, non-adhered cells were removed by gently centrifuging the plates upside down. VSMCs were counted manually and THP-1 cells were counted by automated microscopy after staining cells with DAPI.

SVEP1: recombinant murine SVEP1 extracellular matrix protein with Myc and poly-histidine tag, expressed in 293F cells
platelet receptor density (platelets; freshly isolated human platelets, soluble SVEP1): lower levels of receptor CD42b and CD61 | integrin aIIbβ3 activation (active CD41/61) (platelets; isolated human platelets, basal and with ADP, TRAP6): increased | P-selectin expression (platelets; isolated human platelets, with ADP, TRAP6): increased | AKT signaling (AKT [1]): activated | adhesion of THP-1 cells (THP-1 cells): adhered to SVEP1 in a dose-dependent manner | pAKT, AKT pathway phospho-array (AKT [2]; 10 or 30 minutes, SVEP1 relative to BSA): Elevated pAKT | AKT signaling (AKT [2]; relative to BSA controls): activated | adherence of platelets to coated coverslips (Human platelets): adhered | expression of FGF receptors (FGF receptors): increases expression of FGF receptors
